According to patent US5770573A, “CS-1 peptidomimetics, compositions and methods of using the same” (Cytel Corporation, priority 1995, dated 1998):
Square brackets hold non-standard residues; d marks the D form. Peptide text beside a SMILES is read from it. * marks the point of attachment. PhAc = O=C(Cc1ccccc1)*

Experiments:
[1] = test system: asthmatic sheep; assay: Treatment of asthmatic sheep (Ascaris suum antigen); format: in vivo; conditions: 24 hours after challenge; pre-challenge about 20-23 BU
Method: Six asthmatic sheep were treated in a double blind cross-over study. […] This study was carried out generally as described in Abraham et al., J. Clin. Invest., 93:776-787 (1994).
The inhibitor compound used here was Compound ID No. 896.52, N-phenylacetyl-Leu-Asp-Phe-D-Pro-NH2, with a control compound that comprised the previously described compound having the same residues in a scrambled sequence. The vehicle for the nebulized compounds was phosphate-buffered saline. The compounds were administered at a dose of 1 mg/kg each, twice a day for three days prior to challenge, as well as 0.5 hours prior to and four hours post challenge on day 4. Because this was a crossover study, each animal received one or the other treatment, followed by a rest and then the other treatment. Each animal therefore served as its own control.
Post challenge airway responsiveness was also assayed. Here, specific lung resistance, SRL, returned to baseline values 24 hours after challenge, however, the sheep were hyperresponsive to inhaled carbachol at that time.

[2] = test system: Porcine peripheral blood lymphocytes; assay: In vitro porcine allograft model: transendothelial lymphocyte migration; format: cell-based; conditions: 10 μg/ml in the medium; IL-1β-stimulated SMC
Method: A similar study was carried out in vitro using porcine coronary artery endothelial cells (EC; as are present in the IEL) and smooth muscle cells (SMC; as are present in the medial layer of the artery). The two cell types were cultured using a membrane transwell system, with the SMC on the bottom layer in M-199 medium (Gibco Labs.). The SMC were stimulated with 100 ng/ml of interleukin-1β (IL-1β) for 24 hours prior to the start of the assay. Porcine peripheral blood lymphocytes were separated by Ficoll-Hypaque, radiolabeled and incubated overnight (about 18 hours) on the EC.
Transendothelial lymphocyte migration in the IL-1β-stimulated SMC was observed as compared to unstimulated SMC (p<0.05).

[3] = test system: delayed-type hypersensitivity murine model; assay: Adoptive transfer delayed type hypersensitivity in mice (oxazolone); format: in vivo, mouse; conditions: 6 mg/kg/day s.c. by implanted pump for 24 hours; versus saline
Method: An adoptive transfer delayed-type hypersensitivity murine model has been developed using splenic T cells primed to oxazolone. This model is described in Elices et al., Clin. Exp. Rheum., 11 (Suppl. 8):577-580 (1993), whose procedures were followed here.
Thus, BALB/c mice were shaved on the belly and painted (50 μl on the belly and 5 μl on each paw) with three percent oxazolone in acetone/olive oil (4:1) at days zero and 1. At day 5, the mice were sacrificed, their spleens removed, and splenic T cells were obtained via nylon wool columns.
Normal saline or saline containing 25×10^6 /animal of the oxazolone-immune T cells were separately injected into naive mice. The mice were then challenged by painting 10 μl of 2 percent oxazolone onto one ear each. All procedures were carried out under sterile conditions and in endotoxin-free buffers.
Prior to challenge or saline injection, the mice were implanted with pumps that subcutaneously administered normal saline, normal saline containing the compound, Compound ID No. 896.52, N-phenylacetyl-Leu-Asp-Phe-D-Pro-NH2, or normal saline containing a compound with a scrambled sequence continually at 6 mg/kg/day for a 24-hour time period. The swelling diameter at the site of challenge or saline injection was measured with a microcaliper 24 hours thereafter.
An expanded study was carried out as described above except that a scrambled compound control was not used as a control for further inhibitor compounds of Table 1 with larger groups of mice. Statistical analyses were carried out versus injection of vehicle alone.

CC(C)C[C@H](NC(=O)[C@H](CC(=O)O)NC(=O)Cc1ccccc1)C(=O)N[C@@H](Cc1ccccc1)C(=O)N1CCC[C@@H]1C(N)=O [Compound ID No. 1066.02, N-phenylacetyl-Asp-Leu-Phe-D-Pro-NH2, reference compound] (PhAc-DLF[dP]-NH2)
PC400, carbachol dosage to increase SRL 4-fold [1]: about 12 BU
reduction of lymphocyte migration [2]: did not reduce migration
swelling at challenge site (initial study, FIG. 5) [3]: no reduction of inflammation
